Measurements from US20260364181A1, “AKR1C3 Targeted Heterobifunctional Small Molecule Proteolysis Targeting Chimeras” (BOARD OF REGENTS OF THE UNIVERSITY OF NEBRASKA, priority 2022, published 2026).

Columns and labels:
[1] = biological target: T1, AKR1C2 (Homo sapiens, UniProt P52895); experiment: AKR1C2 enzyme inhibition (oxidation of S-tetralol); format: biochemical; conditions: role: substrate; 3.0 mM S-tetralol, 2.3 mM NAD+, 100 mM potassium phosphate pH 7.0, 37 °C
T1 construct: made in house
T1 sequence (P52895 1-323): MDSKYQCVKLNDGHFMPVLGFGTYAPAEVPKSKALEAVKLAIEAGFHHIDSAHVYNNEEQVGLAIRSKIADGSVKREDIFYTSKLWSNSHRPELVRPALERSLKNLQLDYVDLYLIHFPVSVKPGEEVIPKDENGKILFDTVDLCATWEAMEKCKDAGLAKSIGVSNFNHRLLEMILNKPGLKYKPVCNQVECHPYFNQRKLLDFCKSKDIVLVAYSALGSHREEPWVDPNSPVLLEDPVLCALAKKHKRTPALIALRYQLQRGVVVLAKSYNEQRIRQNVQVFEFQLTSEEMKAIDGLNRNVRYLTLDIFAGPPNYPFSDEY
Procedure: (§1) Enzyme Inhibition Assay. (S)-(+)-1,2,3,4-tetrahydro-1-naphthol (S-tetralol) was purchased from Sigma-Aldrich (St. Louis, MO). Nicotinamide adenine dinucleotide (NAD^+) and nicotinamide adenine dinucleotide phosphate (NADP^+) were purchased from Roche Diagnostics (Indianapolis, IN). Homogeneous recombinant enzymes AKR1C1, AKR1C2, AKR1C3 and AKR1C4 were prepared and purified as previously described.^3 The specific activities of AKR1C3 and AKR1C2 for the oxidation of S-tetralol are 2.0 and 1.5 μmol/(min mg), respectively.
(§2) Assay of Enzyme Activity. The dehydrogenase activities of AKR1C3 and AKR1C2 were determined by measuring the UV absorption of NADH formation at 340 nm using a Beckman DU-640 spectrophotometer. […] After continuously monitoring for 5 min, we recorded the increase in UV absorption using different concentrations of an enzyme to calculate the initial velocity and determine the specific activity of the enzyme.
(§3) IC50 Value Determination. The inhibitory potency for each compound was represented by IC50 values and measured as described before. The IC50 values of [COMPOUND LEFT OUT] and [COMPOUND LEFT OUT] analogues were determined by measuring their inhibition of the NADP+-dependent oxidation of S-tetralol catalyzed by AKR1C3 or AKR1C2. […]

[2] = biological target: T2, AKR1C3 (Homo sapiens, UniProt P42330); experiment: AKR1C3 enzyme inhibition (oxidation of S-tetralol); format: biochemical; conditions: role: substrate
T2 sequence (P42330 1-323): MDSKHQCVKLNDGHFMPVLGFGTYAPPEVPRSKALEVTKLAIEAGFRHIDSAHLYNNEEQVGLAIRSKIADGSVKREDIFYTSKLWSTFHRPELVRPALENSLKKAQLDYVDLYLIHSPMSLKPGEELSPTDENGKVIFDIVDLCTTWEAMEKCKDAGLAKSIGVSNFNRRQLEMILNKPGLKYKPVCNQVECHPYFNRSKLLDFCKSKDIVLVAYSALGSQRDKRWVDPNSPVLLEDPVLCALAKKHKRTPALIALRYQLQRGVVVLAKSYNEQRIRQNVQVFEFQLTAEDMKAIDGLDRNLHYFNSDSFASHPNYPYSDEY
Procedure: as §1, §2, §3

[3] = tested on: 22Rv1 prostate cancer cells; experiment: 22Rv1 cell viability (MTS assay); format: cell-based; conditions: 72 h
Procedure: Cell culture and reagents. 22Rv1 cells were purchased from the American Type Culture Collection (ATCC in 2016) and cultured in RPMI 1640 supplemented with 10% Fetal Bovine Serum (FBS, Fisher Scientific, MT35011CV) and Penicillin-Streptomycin Solution (1%, Fisher Scientific, MT30001Cl) at 37 °C in a humidified incubator with 5% carbon dioxide atmosphere. Stock solutions of E3 ligase ligand, lenalidomide 6 (10 mM), PROTAC 5 (25 mM), and AKR1C3 inhibitor 3 (100 mM) were prepared in DMSO.
Cell viability assay. Cells were seeded at a density of 10,000 cells/well in a 96-well plate containing 100 μL growth media per well and were incubated at 37 °C in a humidified incubator with 5% carbon dioxide over ~18-24 hours. Cells were treated with 6, 5, and 3 serially diluted at the indicated concentrations limiting the final DMSO concentration to less than 0.1% and incubated at 37 °C for 72 hours. 10 μL of MTS reagent (CellTiter96®Aqueous One Solution Reagent, Promega, G3580) was added to each well and incubated at the above-mentioned conditions for 4 hours. Absorbance was recorded at OD 490 nm on a Synergy LX multi-mode reader and the viability of cells were plotted as percentage of DMSO control.

[4] = biological target: T2, AKR1C3; experiment: AKR1C3 protein degradation in 22Rv1 prostate cancer cells (Western blot); format: cell-based; design: 22Rv1 prostate cancer cells that express high levels of AKR1C3; host or cells: 22Rv1; conditions: 1 μM and 10 μM; 24 h; in words
Procedure: Protein Expression via Western Blot. 22Rv1 cells were seeded in a 6-well plate and incubated overnight. Next day, the cells were treated with varying concentrations of 6 (1 and 10 μM) and 5 (0.5, 1, 10, 50, 100, 250, and 500 nM; 1, 10, and 50 μM) for 24 hours and 5 (1 and 10 nM) at different time points (0, 2, 4, 6, 12, 16, 24, 48, and 72 h). Whole cell lysates were extracted in RIPA lysis buffer containing protease inhibitor and EDTA (Fisher Scientific, PI78440). Protein concentrations in each sample was estimated following BCA assay (Pierce™ BCA protein assay kit, Fisher Scientific, PI23227) as per the manufacturer's protocol. Proteins were standardized using RIPA lysis buffer with Laemelli SDS sample buffer (Thermo Scientific, AAJ61337AC) and heated at 1000C for 15 minutes. The proteins were resolved on a 4-12% premade gel (Invitrogen, NW04120BOX) at 60-90 V in 20× Bolt™ MES SDS running buffer (Fisher Scientific, B000202) and transferred onto a nitrocellulose membrane (Invitrogen, IB23001) using iBlot 2. The membranes were blocked with 2.5% non-fat dry milk (Bio-Rad, 1706404) for 1 h, and the membrane was incubated overnight on a rocking platform at 4 °C with the desired primary antibodies against AKR1C3 (mouse mAb, 1:200, Sigma, A6229), AKR1C1/C2 (rabbit mAb, 1:500, Abcam, ab179448), ARv7 (rabbit mAb, 1:500, Abcam, ab198394) and actin (mouse mAb, 1:1,000, ThermoFisher, MA5-11869). The membranes were washed three times, 10 minutes each, with 1×Tris-buffered saline (TBST, Bio-Rad, 1706435) in 0.1% Tween 20, on a rocking platform wherein they were incubated with rabbit anti-mouse IgG (ThermoFisher, 31450) or goat anti-rabbit IgG (Jackson ImmunoResearch, 111-035-003) secondary antibody (1:1,000) horseradish peroxidase conjugate for 1 hour. The membranes were again washed three times with 1×TBST, upon which they were exposed to LI-COR WesternSure PREMIUM chemiluminescent substrate (Fisher Scientific, 50-489-552) and developed in a dark room with Konica Minolta equipment. Bands were quantified by densitometry using ImageJ software and fold change in AKR1C3, AKR1C1/C2, and ARv7 protein expression was determined based on actin controls. […]
The AKR1C3 degradation effect of PROTAC 5 was screened across a range of concentrations to identify a suitable treatment protocol. 22Rv1 cells were treated with increasing concentrations of […], DMSO or lenalidomide 6 at 1 μM and 10 μM for 24 hours, and the degradation profile was determined by Western blot analysis with antibody for AKR1C3.

[5] = substrate: O[C@H]1CCCc2ccccc21; experiment: AKR1C2 enzyme inhibition (oxidation of S-tetralol); format: biochemical; conditions: other: role: substrate; NADP+-dependent oxidation; pH 7.0; 37.0 °C
Procedure: as §1, §2, §3

For `O[C@H]1CCCc2ccccc21` [S-tetralol, (S)-(+)-1,2,3,4-tetrahydro-1-naphthol], the “specific activity of AKR1C2 for oxidation of S-tetralol” value [1] was 1.5 µmol/min/mg, the “specific activity of AKR1C3 for oxidation of S-tetralol” value ([2]; 3.0 mM S-tetralol, 2.3 mM NAD+, 100 mM potassium phosphate pH 7.0, 37 °C) was 2.0 µmol/min/mg and the Km ([2]; NADP+-dependent oxidation) was 165 µM.

With `Nc1cccc2c1CN(C1CCC(=O)NC1=O)C2=O` (stereo not shown) [lenalidomide 6, lenalidomide, reference compound] the “22Rv1 cell viability activity in words” value [3] was “no activity”, the IC50 ([3]; Homo sapiens, 22Rv1, MTS, mean±standard deviation of two independent experiments) was > 100 µM and the “effect on AKR1C3 expression” value [4] was “no effect on AKR1C3 expression”.

B1: AKR1C2 (Homo sapiens) (protein)
chain: MDSKYQCVKLNDGHFMPVLGFGTYAPAEVPKSKALEAVKLAIEAGFHHIDSAHVYNNEEQVGLAIRSKIADGSVKREDIFYTSKLWSNSHRPELVRPALERSLKNLQLDYVDLYLIHFPVSVKPGEEVIPKDENGKILFDTVDLCATWEAMEKCKDAGLAKSIGVSNFNHRLLEMILNKPGLKYKPVCNQVECHPYFNQRKLLDFCKSKDIVLVAYSALGSHREEPWVDPNSPVLLEDPVLCALAKKHKRTPALIALRYQLQRGVVVLAKSYNEQRIRQNVQVFEFQLTSEEMKAIDGLNRNVRYLTLDIFAGPPNYPFSDEY
notes: made in house
B1 gave a Km [5] of 15 µM.
